One test concerns Treponema hyodysenteriae. Description: Minimum Inhibitory Concentration against Treponema hyodysenteriae (Table 7). The format is cell-based. To be noted: for MIC: Brachyspira hyodysenteriae. The source says: The compound was examined for activity against Treponema hyodysenteriae, the etiologic agent of swine dysentery. The results which represent a comparative test following well-known test methods versus a known agent in the treatment and prevention of swine dysentery are set forth in the table below.

Test [1] deals with Mycobacterium phlei 78 ATCC 355. Description: Antimicrobial activity, Minimum Inhibitory Concentration (Table 4). The format is cell-based. To be noted: G (+) filaments.
Test [2] relates to Streptococcus faecium ATCC 8043. Described as above. The format is cell-based. The settings on record: G (+) cocci.
In test [3] the test system is Saccharomyces cerevisiae 90 NRRL 4226. The description is as above. Type of test: cell-based. To be noted: Yeast.
The subject of test [4] is Staphylococcus aureus 82 ATCC 6538p. The test is described as above. The format is cell-based. The settings on record: G (+) cocci.
A further test relates to Bacillus sp.E ATCC 27859. Described as above. The format is cell-based. The settings on record: G (+) rods.
A further test relates to ruminants. The test can be described thus: Growth promotion / efficiency of feed utilization in ruminants. Type of test: in vivo. The settings on record: result in words.
Test [5] relates to Streptomyces cellulosae 097 ATCC 3313. The test can be described thus: Antimicrobial activity, Minimum Inhibitory Concentration (Table 4). To be noted: G (+) filaments. Type of test: cell-based.
The subject of test [6] is Penicillin digitatum 0184 ATCC 26821. Described as above. The format is cell-based. The settings on record: Molds.
The subject of test [7] is Candida albicans 155 NRRL 477. The test is described as above. Type of test: cell-based. To be noted: Yeast.
Test [8] concerns Paecilomyces varioti M16 ATCC 26820. Described as above. To be noted: Molds. The format is cell-based.
The subject of test [9] is in vitro rumen fermentations. The test can be described thus: Volatile fatty acid ratio in in vitro rumen fermentations (Table 6). To be noted: for VFA Molor Ratio C3 /(C2 +nC4): four hours, 38° C.; for % Positive Control: relative to monensin 50 ppm. On the set-up: species or system steer. How it is done:
Rumen fluid is obtained from a steer with a fistulated rumen. The steer is maintained on the following ration:
The rumen fluid is immediately strained through a #30 mesh sieve. For each fermentation, 75 ml of the resulting fluid is added to a 250 ml flask containing the following:
1 g of 80%:20% finely ground grain: hay ration;
60 micromoles of each of the 10 essential amino acids (arginine, histidine, leucine, methionine, threonine, valine, lysine, isoleucine, phenylalanine,tryptophan);
Each flask is incubated at 38° C. in a shaking water bath equipped with a gassing hood. Carbon dioxide is continuously passed through the hood. […] The resulting fluid is permitted to sit at room temperature for 30 minutes. The fluid is filtered through a […] Millipore filter and refrigerated until gas-liquid chromatographic analysis for volatile fatty acids.

The test system of test [10] is Bacillus subtilis NRRL 558. Description: Antimicrobial activity, Minimum Inhibitory Concentration (Table 4). Type of test: cell-based. To be noted: G (+) rods.
The subject of test [11] is Sarcina lutea PCI ATCC 9341. The test is described as above. Type of test: cell-based. To be noted: G (+) cocci.
Test [12] deals with Bacillus megaterium 164 ATCC 8011. Described as above. Type of test: cell-based. The settings on record: G (+) rods.

Converted amounts (≈) assume the structure as drawn. Where two headings read alike, the source gives them in different places.

Regarding `CO[C@@H]1[C@@H](OC)[C@H](C)[C@@](O)(CC(=O)O)O[C@H]1[C@H](C)[C@H]1O[C@@]2(CC[C@@](C)([C@H]3CC[C@@](C)([C@@H]4O[C@@H]([C@H]5O[C@](C)(O)[C@H](C)C[C@@H]5C)C[C@@H]4O[C@@H]4C[C@H](OC)[C@@H](OC)[C@H](C)O4)O3)O2)C[C@H](O)[C@H]1C.N` [Antibiotic X-14868A], in the test on Treponema hyodysenteriae (mean of four strains), the “Minimum Inhibitory Concentration, Mean” value worked out at 0.05 meg/ml. Also, the “Minimum Inhibitory Concentration” value in the test with Treponema hyodysenteriae (strain B 169) is 0.05 meg/ml; in the test with Treponema hyodysenteriae (strain H 140) it was 0.05 meg/ml; with Treponema hyodysenteriae (strain H-78) it was 0.05 meg/ml; with Treponema hyodysenteriae (strain SQ 2), 0.05 meg/ml; in test [1] it was 12.5 µg/mL; in [2], 0.313 µg/mL. In addition, the “Minimum Inhibitory Concentration” value in test [3] was found to be 1000 µg/mL; in [4], 6.25 µg/mL; in the test on Bacillus sp.E ATCC 27859, 0.39 µg/mL; in [5], 25 µg/mL; in [6], 1000 µg/mL; in [7] it was 250 µg/mL. Moreover, the “Minimum Inhibitory Concentration” value turned out to be 250 µg/mL in [8], 12.5 µg/mL in test [10], 12.5 µg/mL in [11] and 12.5 µg/mL in test [12]. Moreover, in the test on ruminants (oral), the “efficiency of feed utilization in ruminant animals” value is “increases the efficiency of feed utilization in ruminant animals”. Further, in the test on ruminants, the “activity as a growth promotant in ruminants” value is recorded as “exhibit activity as a growth promotant in ruminants”. Further, the “VFA Molor Ratio C3 /(C2 +nC4)” value in test [9] (5 ppm) is 0.323; in test [9] (50 ppm), 0.358. Further, the “% Positive Control” value in [9] (5 ppm) is 82.5%; in test [9] (50 ppm) it was 91.2%.
Take `CC(C)c1ncc([N+](=O)[O-])n1C` [Ipronidazole, reference compound]: the MIC with Treponema hyodysenteriae (mean of four strains, read-out: Minimum Inhibitory Concentration, Mean) was 1.1 µg/mL (≈ 6.5 µM); in the test with Treponema hyodysenteriae (strain B 169, read-out: Minimum Inhibitory Concentration), 0.63 µg/mL (≈ 3.72 µM); with Treponema hyodysenteriae (strain H 140, read-out: Minimum Inhibitory Concentration), 0.63 µg/mL (≈ 3.72 µM); with Treponema hyodysenteriae (strain H-78, read-out: Minimum Inhibitory Concentration), 0.63 µg/mL (≈ 3.72 µM); with Treponema hyodysenteriae (strain SQ 2, read-out: Minimum Inhibitory Concentration), 2.5 µg/mL (≈ 14.8 µM).
On to `CC[C@@]1([C@@H]2O[C@@H]([C@H]3O[C@@](O)(CO)[C@H](C)C[C@@H]3C)C[C@@H]2C)CC[C@H]([C@]2(C)CC[C@]3(C[C@H](O)[C@@H](C)[C@@H]([C@@H](C)[C@@H](OC)[C@H](C)C(=O)O)O3)O2)O1` [Monensin, reference compound], for which, in test [9] (50 ppm), the “VFA Molor Ratio C3 /(C2 +nC4)” value was determined as 0.392 and the “% Positive Control” value is 100.0%.

(Values after patent publication US4278663A, “Antibiotic X-14868A, B, C and D” (Hoffmann-La Roche Inc., priority 1980, dated 1981).)
